{"source": "patent US9856247B2", "about": "“4-methyl-dihydropyrimidines for the treatment and prophylaxis of Hepatitis B virus infection” (Hoffmann-La Roche Inc., priority 2012, dated 2018)", "key": {"[1]": {"experiment": "Stability in mouse liver homogenate", "type": "in vitro ADME, CD-1 mouse", "procedure": "In this experiment, fresh mouse liver sample was homogenized by adding saline (1 g liver tissue: 5 mL saline) immediately after collection. After centrifuging for 10 minutes at 14000 rpm, the pooled supernatant was used to prepare liver homogenate solutions. […] Then, they were incubated at rt. After incubation time of 0, 15 and 30 minutes, 180 μl aliquots of MeOH was added into 20 μl of homogenate, respectively. All these samples were vortex mixed for 5 minutes at 1500 rpm and centrifuged for 10 minutes at 14000 rpm. The supernatants were transferred into a 96-well plate for LC-MS/MS analysis.\nThe Chromatographic separation was achieved on a Chromolith Performance RP-18 endcapped (3×100 mm) at room temperature.\nData processing was performed with Agilent MassHunter Workstation Data Acquisition B.04.00 and Agilent MassHunter Workstation Qualitative Analysis B.04.00."}, "[2]": {"experiment": "Incubation with human liver microsomes (metabolite formation)", "type": "in vitro ADME", "conditions": "5 μM, 1 mM NADPH, 60 minutes", "procedure": "(§1) In this experiment, pooled liver microsomes (20 mg/ml) from human, male Wister rat and male CD-1 mouse were obtained from BD Bioscience (Franklin Lakes, N.J. USA). Incubation reaction mixtures contained a final concentration of 0.1M sodium phosphate buffer (pH 7.4), 0.5 mg/ml microsomal protein, 5 μM of the tested compounds and 1 mM NADPH in a total volume of 400 μl. The incubations were done for 60 minutes and 300 μl of the mixtures was transferred to 150 μl of ice cold methanol to terminate reactions. After vortexes for 3 minutes and centrifuged at 4000 rpm at 4° C. for 10 minutes, the clear supernatant was used directly for analysis. The samples were analyzed by Applied Biosystems API 3200 Q TRAP LC/MS/MS system using electrospray ionization mode."}, "[3]": {"experiment": "Incubation with rat liver microsomes (metabolite formation)", "type": "in vitro ADME, male Wister rat", "conditions": "5 μM, 1 mM NADPH, 60 minutes", "procedure": "as §1"}, "[4]": {"experiment": "Incubation with mouse liver microsomes (metabolite formation)", "type": "in vitro ADME, male CD-1 mouse", "conditions": "5 μM, 1 mM NADPH, 60 minutes", "procedure": "as §1"}, "HBV": {"system": "HBV", "conditions": "HBV infected transgenic mouse or humanized mouse models; cited from earlier work"}}, "data": [{"smiles": "COC(=O)C1=C(C)NC(c2ncc(F)cc2F)=N[C@H]1c1ccc(F)cc1Cl", "note": "[Bay 41-4109]", "values": [{"measurement": "Percentage to 0 min", "setting": "[1]; 100 ng/mL, incubation time 0 min", "value": 100, "unit": "%"}, {"measurement": "Percentage to 0 min", "setting": "[1]; 100 ng/mL, incubation time 15 min, rt", "value": 1.84, "unit": "%"}, {"measurement": "Percentage to 0 min", "setting": "[1]; 300 ng/mL, incubation time 0 min", "value": 100, "unit": "%"}, {"measurement": "Percentage to 0 min", "setting": "[1]; 300 ng/mL, incubation time 30 min, rt", "value": 0, "unit": "%"}, {"measurement": "Percentage to 0 min", "setting": "[1]; 1000 ng/mL, incubation time 0 min", "value": 100, "unit": "%"}, {"measurement": "Percentage to 0 min", "setting": "[1]; 1000 ng/mL, incubation time 15 min, rt", "value": 1.90, "unit": "%"}, {"measurement": "Percentage to 0 min", "setting": "[1]; 1000 ng/mL, incubation time 30 min, rt", "value": 0.16, "unit": "%"}, {"measurement": "compound detected after incubation", "setting": "[1]; 15 minutes room temperature incubation, at three different concentration levels", "value": "About 2%"}, {"measurement": "stability in liver homogenate treated with saline", "setting": "[1]; conclusion in words", "value": "not stable"}, {"measurement": "conversion to pyrimidine product XLVI", "setting": "[2]", "value": "converted to XLVI"}, {"measurement": "conversion to pyrimidine product XLVI", "setting": "[3]", "value": "oxidized to pyrimidine product XLVI"}, {"measurement": "conversion to pyrimidine product XLVI", "setting": "[4]", "value": "oxidized to pyrimidine product XLVI"}, {"measurement": "in vivo efficacy (HBV DNA reduction)", "setting": "HBV", "value": "demonstrated in vivo efficacy with HBV DNA reduction"}]}]}
